Source: ChEMBL document CHEMBL3507680, “University of Dundee, Gates Library screen for HepG2 cell viability”

Assay: Human HepG2 cell viability assay in 384 well format
Format: toxicity, cell-based
Parameters: dose 125 nL, time 70.5 hour; cytotoxicity at 70.5 h: concentration not given beside the values
Settings: HepG2 cells, read-out: Inhibition
For `COCCN(C)CCN1CC2(CCN(C3CCOC3)CC2)OC1=O` (centres undefined), the cytotoxicity at 70.5 h was -0.423%. Work on `CCn1ccnc1CN1CCN(c2ncnc3ccsc23)CC1C` (centres undefined) yielded a cytotoxicity at 70.5 h of 0.44%. For `CCc1cnc(N2C[C@H]3C[C@H](C(=O)NC4CCC4)[C@@H](C2)O3)nc1`, the cytotoxicity at 70.5 h was -1.31%. In the case of `Cc1noc(C(C)C)c1C(=O)N1CCC(n2cccn2)CC1`, the cytotoxicity at 70.5 h is reported as 13.2%. In the case of `c1cnn(CC2CCCCN2Cc2nc(-c3ccsc3)no2)c1` (centres undefined), the cytotoxicity at 70.5 h is reported as -4.27%. Work on `Cc1cc(CNC(=O)CN2CCN(C(=O)OC(C)(C)C)CC2)ccc1F` yielded a cytotoxicity at 70.5 h of 13.3%. For `CCCN1CCN(Cc2cccc(OC(C)C)c2)[C@H]2CS(=O)(=O)C[C@H]21`, the cytotoxicity at 70.5 h was 12.5%. `CN(Cc1nccn1C)C(=O)c1cccc(CCC(C)(C)O)c1` gave a cytotoxicity at 70.5 h of 7.23%. In the case of `CC(=O)N1CCC(N2CC(Cc3nccc4ccn(C)c34)C2)CC1`, the cytotoxicity at 70.5 h is reported as -6.03%. With `Cc1ccc(Oc2ncccc2CNC2CCSCC2)cn1` the cytotoxicity at 70.5 h was -8.64%. Molecule `COC1CCN(C(=O)COC(C)=O)CC(=O)N(C)c2ccccc21` (centres undefined) has a cytotoxicity at 70.5 h of -3.04%. Work on `CCc1nccn1-c1cncc(C2CCCN2Cc2ccccc2)n1` (centres undefined) yielded a cytotoxicity at 70.5 h of -5.36%. In the case of `CC(C)c1n[nH]c(C2CN(C(=O)c3cc4c(s3)CCC4)CCO2)n1` (centres undefined), the cytotoxicity at 70.5 h is reported as -8.59%. `CC1c2cc(F)ccc2CCN1C(=O)c1[nH]c(=O)[nH]c(=O)c1N` (centres undefined) gave a cytotoxicity at 70.5 h of -2.24%. For `CCN1CCN(c2ccc(NC(=O)CC(C)C)c(C)c2)CC1`, the cytotoxicity at 70.5 h was -20.9%. For `Cc1noc(C2CCCN2C(=O)C2CCC2)n1` (centres undefined), the cytotoxicity at 70.5 h was -11.5%. `O=S(=O)(c1ccccc1)N1CCC2(CCCN2Cc2ccc(Cl)cc2)C1` (centres undefined) gave a cytotoxicity at 70.5 h of -7.11%. Molecule `CNC(=O)[C@@H](c1ccccc1OC)N1CCC[C@H]1C(=O)NC1CC1` has a cytotoxicity at 70.5 h of -1.71%. For `Cc1cc(C(=O)N2CCCCC2)ccc1NS(C)(=O)=O`, the cytotoxicity at 70.5 h was -8.47%. `Cc1nc2c(C#N)cnn2c(C)c1CCC(=O)N(C)C1CC1` gave a cytotoxicity at 70.5 h of 8.54%. In the case of `CC(C)NC(=O)N1CCC2(CC(=O)N(c3ccsc3)C2)C1` (centres undefined), the cytotoxicity at 70.5 h is reported as -14.3%. Molecule `Cc1cnn(CC2CN(CCCS(C)(=O)=O)CCO2)c1` (centres undefined) has a cytotoxicity at 70.5 h of -0.801%. For `CCN1CCN(C(=O)NCc2ccccc2Cn2cncn2)CC1`, the cytotoxicity at 70.5 h was 19.4%. Molecule `CC(C)(C)C(=O)NS(=O)(=O)c1ccc(C#N)cc1C(F)(F)F` has a cytotoxicity at 70.5 h of -14.8%. Molecule `CC(Cn1cccn1)NC(=O)CCC(=O)c1cccs1` (centres undefined) has a cytotoxicity at 70.5 h of -11.2%. `Cc1ccc2c(c1)C(NC(=O)C1CCN(S(C)(=O)=O)CC1)CC(C)(C)O2` (centres undefined) showed a cytotoxicity at 70.5 h of -2.93%. For `Cc1nc(CNCc2c(C)nn(C)c2N2CCOCC2)cs1`, the cytotoxicity at 70.5 h was -15.5%. For `COc1cc(C(=O)NC(C)(C)CN2CCN(C)CC2)c2ccccc2n1`, the cytotoxicity at 70.5 h was -11.5%. In the case of `Cc1sc2nc(C(F)(F)F)nc(N3CCN(C)CC3)c2c1C`, the cytotoxicity at 70.5 h is reported as -4.17%. With `CC(=O)N1CCCCC1c1nc2c(c(N3CCCCC3)n1)CN(C)CC2` (centres undefined) the cytotoxicity at 70.5 h was -1.02%. `COCCn1cnc2ccc(NC(=O)C(C)C)cc2c1=O` gave a cytotoxicity at 70.5 h of -7.01%. Work on `COCCOCC(=O)N1C[C@@H]2CC[C@H](Oc3cccc(F)c3)[C@@H]2C1` yielded a cytotoxicity at 70.5 h of -3.05%. `COc1ccc(CN2CCC3(CC2)CCN(c2ncccn2)CC3)cc1` showed a cytotoxicity at 70.5 h of -6.69%. With `O=C(CCc1cccs1)N1CCC(Nc2cccnn2)CC1` the cytotoxicity at 70.5 h was 42.7%. `O=c1c2cnc(N3CCCCC3)nc2ccn1-c1ccccc1F` showed a cytotoxicity at 70.5 h of 8.21%. With `Cc1cc(F)ccc1N1CCCC(Nc2nccn3cnnc23)C1=O` (centres undefined) the cytotoxicity at 70.5 h was -2.63%. Molecule `COc1ccc(NC(=O)C(c2ccc(OC)cc2)N2CCOCC2)cc1` (centres undefined) has a cytotoxicity at 70.5 h of 0.848%. Work on `Cc1cc(NCCNc2ccc(C#N)cn2)nc(C)n1` yielded a cytotoxicity at 70.5 h of -6.84%. With `CC1c2ccc(F)cc2CCN1C(=O)c1[nH]c(=O)[nH]c(=O)c1N` (centres undefined) the cytotoxicity at 70.5 h was -1.6%. `CO[C@H]1CCN(Cc2cnn(C)c2)[C@@H]2CN(Cc3ccncc3)C[C@H]12` showed a cytotoxicity at 70.5 h of -6.62%. `CCc1ncnc2c1CCN(Cc1ccc(OC)cc1)CC2` showed a cytotoxicity at 70.5 h of -8.97%. `O=C(O)[C@@H]1CN(C(=O)CN2CCCCCC2)C[C@H]1c1ccccc1` showed a cytotoxicity at 70.5 h of 1.47%. `COc1ccc(C(CNC(=O)c2cnc(C)cn2)N2CCOCC2)cc1` (centres undefined) showed a cytotoxicity at 70.5 h of -3.63%. Work on `Cc1cccc(C(=O)NCCCN2CCN(c3ccccc3)CC2)c1` yielded a cytotoxicity at 70.5 h of 7.06%. In the case of `CCOCC1CN(Cc2cnn(C)c2)Cc2c1cnn2CC` (centres undefined), the cytotoxicity at 70.5 h is reported as 7.67%. `Cc1ccc(CN2CCC3(CC2)CN(c2cnn(C)c2)C(=O)CO3)o1` showed a cytotoxicity at 70.5 h of -9.82%. With `CC1(C)CC1(C(=O)N1CC(c2cccnc2)C1)c1ccccc1F` (centres undefined) the cytotoxicity at 70.5 h was -7.64%. In the case of `Cc1ccc(C(=O)N(C)Cc2ccc(Br)s2)c(=O)[nH]1`, the cytotoxicity at 70.5 h is reported as 2.28%. In the case of `O=C1CC2(CCCC2)CC(=O)N1Cc1ncccn1`, the cytotoxicity at 70.5 h is reported as 19.8%. `O=C(Nc1nccs1)NC1CCN(CC2CCCC2)CC1` showed a cytotoxicity at 70.5 h of -13.1%. With `CN(Cc1nc(-c2cccs2)no1)Cc1nc2c(s1)CCCC2` the cytotoxicity at 70.5 h was -3.38%. Molecule `Cc1cc(C)cc(C2(C(=O)N3CCCC(n4cncn4)C3)CC2)c1` (centres undefined) has a cytotoxicity at 70.5 h of -17.8%. In the case of `O=C(Nc1ccc(CCN2CCC(O)CC2)cc1)Nc1cccnc1`, the cytotoxicity at 70.5 h is reported as -1.85%. `N[C@@H](C(=O)N1CCN(c2ccccc2Cl)C(=O)C1)c1ccccc1` gave a cytotoxicity at 70.5 h of -14.1%. For `CC1(C)[C@H](Cc2cc(CN3CCOCC3)on2)C[C@@H]1NC(=O)C1CCC1`, the cytotoxicity at 70.5 h was 11.5%. Work on `CSc1ccccc1CN1C[C@@H]2CC[C@H](C1)N(CC1CC1)C2=O` yielded a cytotoxicity at 70.5 h of 26.6%. Molecule `Cc1nc(C(=O)N(C)CC2CC2)nn1-c1ccccc1C(C)C` has a cytotoxicity at 70.5 h of 36%. For `COCCN1CC2(CCC1=O)CCN(Cc1cc(F)ccc1Cl)CC2`, the cytotoxicity at 70.5 h was 6.46%. `COCCN1C(=O)CC[C@@H]2[C@H]1CCN2C(=O)C1CCOCC1` gave a cytotoxicity at 70.5 h of -7.67%. Molecule `CN(Cc1cc(Br)cs1)Cc1nnsc1Cl` has a cytotoxicity at 70.5 h of -8.26%. For `CC[C@H]1CN(C(=O)c2ccc(-n3cnnc3)nc2)CC[C@@]1(C)O`, the cytotoxicity at 70.5 h was 36%. Molecule `COCC(=O)N1CC[C@@H]2O[C@@H](C)C[C@H]2C1` has a cytotoxicity at 70.5 h of -12.2%. `Cc1nnc([C@@H]2CC[C@@H]3[C@@H](CCN3S(=O)(=O)c3cccnc3)O2)o1` gave a cytotoxicity at 70.5 h of 0.577%. With `O=C(c1cnccn1)N1CC[C@H]2[C@@H]1CCC(=O)N2c1cccnc1` the cytotoxicity at 70.5 h was -17.4%. With `O=C(CCc1nccs1)N1CCN(c2ccccn2)CC1` the cytotoxicity at 70.5 h was 8.13%. In the case of `c1ccc2oc(N3CCC(c4nncn4C4CC4)CC3)nc2c1`, the cytotoxicity at 70.5 h is reported as 29.8%. Work on `c1cnc(N2CCN(C3CCC[C@@H]4CN(CC5CC5)C[C@H]34)CC2)nc1` (some centres undefined) yielded a cytotoxicity at 70.5 h of -1.3%. `O=C(c1cnccn1)N1CCN(CC2CC2)c2ncccc2C1` showed a cytotoxicity at 70.5 h of 5.88%. Work on `Cc1cc(C)n(CC2CCCCN2C(=O)c2ccc3c(c2)OCO3)n1` (centres undefined) yielded a cytotoxicity at 70.5 h of -2.07%. For `CN1C(=N)NC(=O)/C1=C/c1ccc(-c2ccc(Br)cc2)o1`, the cytotoxicity at 70.5 h was 1.84%. Work on `CC(NC(=O)NCc1cccnc1N(C)C)c1ccc(F)cc1` (centres undefined) yielded a cytotoxicity at 70.5 h of -23.2%. `Cc1nc(CC(=O)N2CCN(C)CC2c2ccccc2)cs1` (centres undefined) gave a cytotoxicity at 70.5 h of -0.955%. With `COCc1cccc(CNCc2c(C)nn(C)c2N2CCOCC2)c1` the cytotoxicity at 70.5 h was -12.5%. Molecule `CC(C)c1nccn1C1CCCN(C(=O)CCc2cnn(C)c2)C1` (centres undefined) has a cytotoxicity at 70.5 h of -10.7%. In the case of `COc1ccc(OCc2nc(C(=O)NCCN3CCOCC3)co2)cc1`, the cytotoxicity at 70.5 h is reported as -5.59%. Molecule `CCCN(CC(=O)OC)C(=O)c1sc(C)nc1C` has a cytotoxicity at 70.5 h of -15.4%. For `O=C(NC1CC(=O)N(Cc2cccc(F)c2)C1)c1ccncc1` (centres undefined), the cytotoxicity at 70.5 h was -8.7%. In the case of `Cc1cc(CN2CCC3(CC2)C(=O)NCCN3CC2CC2)oc1C`, the cytotoxicity at 70.5 h is reported as 9.39%. With `O=C(c1ccco1)N1Cc2cnn(CC3CC3)c2C(COCC2CC2)C1` (centres undefined) the cytotoxicity at 70.5 h was 15.4%.
